Here are results for 8 compounds from ChEMBL document CHEMBL1145021, “First X-ray cocrystal structure of a bacterial FabH condensing enzyme and a small molecule inhibitor achieved using rational design and homology modeling” (J Med Chem, 2003).

In general, IC50 refers to the concentration at which inhibition is half-maximal.

The nature of experiment [1]: Inhibitory activity against Escherichia coli FabH (initiator of the fatty acid synthesis).
Experiment [2] is described as follows: Inhibitory activity against Streptococcus pneumoniae FabH (initiator of the fatty acid synthesis).
Experiment [3] can be described thus: Inhibitory activity against Escherichia coli Beta-ketoacyl-ACP synthase III (FabH) (initiator of the fatty acid synthesis).
The nature of experiment [4]: Inhibitory activity against Streptococcus pneumoniae Beta-ketoacyl-ACP synthase III (FabH) (initiator of the fatty acid synthesis).
Experiment [5] can be described thus: Inhibitory activity against Escherichia coli Beta-ketoacyl-ACP synthase III (initiator of the fatty acid synthesis).
Experiment [6] is described as follows: Inhibitory activity against Streptococcus pneumoniae Beta-ketoacyl-ACP synthase III (initiator of the fatty acid synthesis).

For `O=C(O)c1cc2cc(OCc3c(Cl)cccc3Cl)ccc2n1Cc1cc2c(cc1Cl)OCO2`, the half-maximal inhibitory concentration (IC50) stood at 830 nM in experiment [1] and 40 nM in experiment [2].
`O=C(O)Cn1c(C(=O)O)cc2cc(OCc3c(Cl)cccc3Cl)ccc21`: the concentration for half-maximal inhibition (IC50) worked out at 78000 nM in experiment [3] and 1200 nM in experiment [4].
Take `O=C(O)CCCCCCn1c(C(=O)O)cc2cc(OCc3c(Cl)cccc3Cl)ccc21`: the IC50 in experiment [3] was found to be 2000 nM; in experiment [4], 170 nM.
The matching figures for `O=C(CCCCCn1c(C(=O)O)cc2cc(OCc3c(Cl)cccc3Cl)ccc21)NS(=O)(=O)c1ccccc1`: 4600 nM and 46 nM.
The compound `O=C(O)CCCCCn1c(C(=O)O)cc2cc(OCc3c(Cl)cccc3Cl)ccc21` returned an IC50 in experiment [4] of 140 nM.
Regarding `O=C(O)c1cc2cc(OCc3c(Cl)cccc3Cl)ccc2n1Cc1ccc(O)cc1`, the IC50 came out at 2000 nM in experiment [1] and 53 nM in experiment [2].
As for `O=C(O)CCCn1c(C(=O)O)cc2cc(OCc3c(Cl)cccc3Cl)ccc21`, the values for the IC50 in experiment [3] and in experiment [4] were 1700 nM and 62 nM, respectively.
In the case of `O=C(O)c1ccc(Cn2c(C(=O)O)cc3cc(OCc4c(Cl)cccc4Cl)ccc32)cc1`, the IC50 in experiment [5] stood at 2500 nM; in experiment [6], 200 nM.
